Results: publication PMC3556224 (Journal of natural products, 2013)

Legend:
hAChE = hAChE (Homo sapiens, UniProt P22303); assay: Inhibition of hAChE with acetylthiocholine as substrate; assay type: biochemical
hBChE = hBChE (Homo sapiens, UniProt P06276); assay: Inhibition of hBChE with butyrylthiocholine as substrate; assay type: biochemical
hiCE = molecular target: T1, hiCE (Homo sapiens, UniProt O00748); assay type: cell-based; settings: 4-MUA, U373MG cells
T1 sequence (O00748 27-559): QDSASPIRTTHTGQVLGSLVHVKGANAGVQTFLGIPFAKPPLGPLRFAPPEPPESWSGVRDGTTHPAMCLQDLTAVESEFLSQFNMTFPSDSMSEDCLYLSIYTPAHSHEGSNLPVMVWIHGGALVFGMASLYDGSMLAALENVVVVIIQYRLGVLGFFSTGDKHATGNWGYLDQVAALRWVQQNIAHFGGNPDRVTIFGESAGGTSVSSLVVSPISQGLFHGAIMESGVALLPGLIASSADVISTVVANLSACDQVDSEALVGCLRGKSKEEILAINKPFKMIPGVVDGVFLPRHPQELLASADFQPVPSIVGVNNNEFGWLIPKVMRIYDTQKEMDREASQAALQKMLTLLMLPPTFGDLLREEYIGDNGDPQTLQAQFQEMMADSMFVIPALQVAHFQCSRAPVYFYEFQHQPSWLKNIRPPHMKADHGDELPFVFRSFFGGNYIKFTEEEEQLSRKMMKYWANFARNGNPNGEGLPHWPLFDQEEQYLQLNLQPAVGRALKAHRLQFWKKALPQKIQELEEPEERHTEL

Chain of hBChE (P06276 29-602): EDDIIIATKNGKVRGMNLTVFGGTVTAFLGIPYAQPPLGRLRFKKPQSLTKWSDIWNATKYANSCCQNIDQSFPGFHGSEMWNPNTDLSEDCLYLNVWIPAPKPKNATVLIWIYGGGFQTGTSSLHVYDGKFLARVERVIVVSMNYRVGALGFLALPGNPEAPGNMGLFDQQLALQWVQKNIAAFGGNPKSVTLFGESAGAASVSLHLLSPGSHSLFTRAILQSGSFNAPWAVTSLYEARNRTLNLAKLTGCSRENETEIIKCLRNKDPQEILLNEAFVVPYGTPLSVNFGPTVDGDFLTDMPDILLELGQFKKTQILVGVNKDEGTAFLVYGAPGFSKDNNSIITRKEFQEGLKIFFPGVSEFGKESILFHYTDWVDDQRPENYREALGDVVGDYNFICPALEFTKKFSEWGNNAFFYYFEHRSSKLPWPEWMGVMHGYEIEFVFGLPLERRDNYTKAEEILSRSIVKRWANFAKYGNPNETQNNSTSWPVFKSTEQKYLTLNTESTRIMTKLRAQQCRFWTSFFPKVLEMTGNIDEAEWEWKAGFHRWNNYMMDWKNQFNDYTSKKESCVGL
Chain of hAChE (P22303 32-614): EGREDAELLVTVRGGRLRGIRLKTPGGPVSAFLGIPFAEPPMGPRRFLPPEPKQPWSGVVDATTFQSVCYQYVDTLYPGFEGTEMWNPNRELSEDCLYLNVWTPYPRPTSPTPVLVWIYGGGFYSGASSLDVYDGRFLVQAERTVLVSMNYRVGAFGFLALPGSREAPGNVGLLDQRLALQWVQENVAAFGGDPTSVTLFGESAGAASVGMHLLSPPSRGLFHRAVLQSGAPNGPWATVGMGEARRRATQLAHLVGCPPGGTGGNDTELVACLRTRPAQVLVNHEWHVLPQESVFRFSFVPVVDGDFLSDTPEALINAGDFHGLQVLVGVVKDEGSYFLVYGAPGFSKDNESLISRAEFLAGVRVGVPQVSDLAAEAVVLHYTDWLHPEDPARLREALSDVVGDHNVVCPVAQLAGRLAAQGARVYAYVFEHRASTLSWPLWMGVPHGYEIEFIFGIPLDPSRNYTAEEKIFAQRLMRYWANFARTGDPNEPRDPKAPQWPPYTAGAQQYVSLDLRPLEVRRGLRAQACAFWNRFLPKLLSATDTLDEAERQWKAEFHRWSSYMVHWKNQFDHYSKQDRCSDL

Row | SMILES | inhibition of hAChE (in words) (hAChE) | Ki (hBChE) [µM] | inhibition of hBChE (in words) (hBChE) | intracellular inhibition of hiCE (in words) (hiCE)
1 | Cc1coc2c1C(=O)C(=O)c1c-2ccc2c1CCCC2(C)C [compound 7, 1,6,6-trimethyl-6,7,8,9-tetrahydrophenanthro[1,2-b] furan-10,11-dione] | did not inhibit | > 100 | did not inhibit | –
2 | Cc1coc2c1C(=O)C(=O)c1c-2ccc2c(C)cccc12 [compound 21, 1,6-dimethyl-phenanthro [1,2-b] furan-10,11-dione] | – | > 100 | – | –
3 | Cc1c(S(=O)(=O)[O-])oc2c1C(=O)C(=O)c1c-2ccc2c1CCCC2(C)C.[Na+] [compound 25, 6,7,8,9,10,11-hexahydro-1,6,6-trimethyl-10,11-dioxo-phenanthro[1,2-b] furan-2-sulfonic acid, sodium salt] | – | – | – | failed to inhibit
4 | C[C@H]1COC2=C1C(=O)C(=O)c1c2ccc2c1CCCC2(C)C [compound 24, 1,2,6,7,8,9-hexahydro-1,6,6-trimethyl-(1R)-phenanthro [1,2-b] furan-10,11-dione] | modest activity | – | not BChE | –
5 | Cc1cccc2c3c(ccc12)C1=C(C(=O)C3=O)[C@@H](C)CO1 [compound 22, 1,2-dihydro-1,6-dimethyl-(1R)-phenanthro [1,2-b] uran-10,11-dione] | modest activity | > 100 | not BChE | –
